One assay concerns the target IRAK1 (Homo sapiens, UniProt P51617). Description: RBC HotSpot kinase inhibition assay, IRAK1. The assay is classed as biochemical. The settings on record: isolated kinase, 33P-ATP, 2 h.
Source text: (§1) This assay uses the isolated kinase enzyme. This assay is very useful for determining competition of the inhibitor for ATP and/or substrates and for measuring the kinetics of enzyme inhibition. […] Unlike kinase binding assays that measure competition for ATP, the HotSpot Kinase Assay is a functional assay that measures catalytic activity; as such it measures relative functional potency regardless of the mechanism of enzyme inhibition. This assay uses the form of the various enzymes that are easiest to express, which may not necessarily be the form of the enzyme that exist in the cell. (Sometimes the carboxy terminus has been truncated to aid in expression, or, if it is a receptor kinase, the enzyme itself is isolated from the other parts of the receptor that are involved in regulating kinase activity.)
(§2) The reagent used was as follows: Base Reaction buffer; 20 mM Hepes (pH 7.5), 10 mM MgCl2, 1 mM EGTA, 0.01% Brij35, 0.02 mg/ml BSA, 0.1 mM Na3VO4, 2 mM DTT, 1% DMSO. Required cofactors were added individually to each kinase reaction.
(§3) The reaction procedure was as follows: • 1) Substrates were prepared in freshly prepared Reaction Buffer. • 2) Any required cofactors were delivered to the substrate solution above. • 3) Kinase was delivered into the substrate solution and gently mixed. • 4) Compounds were delivered in 100% DMSO into the kinase reaction mixture by Acoustic technology (Echo550; nanoliter range), followed by incubation for 20 min at room temp. • 5) ^33P-ATP was delivered into the reaction mixture to initiate the reaction. • 6) The mixture was incubated for 2 hours at room temperature. • 7) Kinase activity was detected by P81 filter-binding method.
as §1, with “Although not wishing to be limited by theory, it is believed that sometimes” for “(Sometimes”, “activity.” for “activity.)”
(§4) The reagent used was as follows: Base Reaction buffer; 20 mM Hepes (pH 7.5), 10 mM MgCl2, 1 mM EGTA, 0.01% Brij35, 0.02 mg/ml BSA, 0.1 mM Na3 VO4, 2 mM DTT, 1% DMSO.
(§5) Required cofactors were added individually to each kinase reaction.
as §3, with “33P-ATP” for “^33P-ATP”

The target in a further assay is T1, IRAK4 (Homo sapiens, UniProt Q9NWZ3).
T1 sequence (Q9NWZ3 1-460): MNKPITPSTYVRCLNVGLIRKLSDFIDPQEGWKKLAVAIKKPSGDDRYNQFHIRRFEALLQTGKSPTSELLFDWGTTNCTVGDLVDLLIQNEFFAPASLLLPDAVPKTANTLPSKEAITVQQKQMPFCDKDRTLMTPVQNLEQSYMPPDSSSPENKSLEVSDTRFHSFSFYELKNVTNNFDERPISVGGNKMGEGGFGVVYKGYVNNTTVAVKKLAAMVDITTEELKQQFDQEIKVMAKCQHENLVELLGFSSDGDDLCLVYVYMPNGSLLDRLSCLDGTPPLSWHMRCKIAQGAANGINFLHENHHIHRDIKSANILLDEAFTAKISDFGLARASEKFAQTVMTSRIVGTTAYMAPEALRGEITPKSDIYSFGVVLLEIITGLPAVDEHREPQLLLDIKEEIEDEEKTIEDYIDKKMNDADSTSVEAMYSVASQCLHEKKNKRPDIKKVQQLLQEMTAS
In words: RBC HotSpot kinase inhibition assay, IRAK4. The assay is classed as biochemical. The settings on record: isolated kinase, 33P-ATP, 2 h.
Source text: as §1, §2, §3
as §1, with “Although not wishing to be limited by theory, it is believed that sometimes” for “(Sometimes”, “activity.” for “activity.)”
as §4, §5
as §3, with “33P-ATP” for “^33P-ATP”

For a further assay, the target named is T2, FLT3 (Homo sapiens, UniProt P36888).
T2 sequence (P36888 27-993): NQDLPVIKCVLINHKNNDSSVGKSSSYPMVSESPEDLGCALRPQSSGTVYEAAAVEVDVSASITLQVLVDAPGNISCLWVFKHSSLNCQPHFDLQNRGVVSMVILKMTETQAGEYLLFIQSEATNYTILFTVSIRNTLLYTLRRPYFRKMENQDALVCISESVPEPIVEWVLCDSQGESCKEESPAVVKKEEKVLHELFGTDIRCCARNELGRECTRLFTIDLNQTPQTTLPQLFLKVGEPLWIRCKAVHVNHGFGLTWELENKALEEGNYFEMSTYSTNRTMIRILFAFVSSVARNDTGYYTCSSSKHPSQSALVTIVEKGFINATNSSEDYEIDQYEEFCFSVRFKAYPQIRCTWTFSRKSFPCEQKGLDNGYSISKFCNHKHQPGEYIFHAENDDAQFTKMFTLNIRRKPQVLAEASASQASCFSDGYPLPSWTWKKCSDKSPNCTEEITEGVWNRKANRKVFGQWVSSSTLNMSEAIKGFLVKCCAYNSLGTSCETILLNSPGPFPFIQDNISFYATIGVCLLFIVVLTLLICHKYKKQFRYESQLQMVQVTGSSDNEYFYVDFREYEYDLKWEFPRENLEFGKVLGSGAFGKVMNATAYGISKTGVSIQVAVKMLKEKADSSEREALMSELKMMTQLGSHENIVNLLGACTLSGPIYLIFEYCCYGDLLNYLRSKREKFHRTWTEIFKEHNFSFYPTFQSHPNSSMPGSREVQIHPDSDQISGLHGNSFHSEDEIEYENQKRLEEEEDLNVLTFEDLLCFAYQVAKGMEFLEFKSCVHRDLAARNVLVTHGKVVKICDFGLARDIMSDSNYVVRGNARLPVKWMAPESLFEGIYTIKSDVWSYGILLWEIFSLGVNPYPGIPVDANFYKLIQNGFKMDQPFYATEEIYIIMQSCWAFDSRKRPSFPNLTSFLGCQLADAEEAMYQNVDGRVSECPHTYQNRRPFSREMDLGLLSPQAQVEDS
In words: RBC HotSpot kinase inhibition assay, FLT3. The settings on record: isolated kinase, 33P-ATP, 2 h. In kind it is biochemical.
Source text: as §1, §2, §3
as §1, with “Although not wishing to be limited by theory, it is believed that sometimes” for “(Sometimes”, “activity.” for “activity.)”
as §4, §5
as §3, with “33P-ATP” for “^33P-ATP”

Another assay concerns MOLM14 D835Y cells. Description: MOLM14 D835Y cell viability (Cell Titer Glo). In kind it is cell-based. The settings on record: Homo sapiens. Here is the method:
Both cell lines have activated FLT3 receptors, each of which carry additional resistance mutations in the kinase domain (D835Y and F691L, respectively).
(§6) MOLM14 D835Y and MOLM14 F691L cells were grown in RPMI-1640 media supplemented with 20% fetal bovine serum (FBS). For viability/cytotoxicity assessments, cells were seeded into 1536-well white polystyrene tissue culture-treated Greiner plates using a Multidrop Combi dispenser (ThermoFisher), in final volume 5 μL of growth media per well, at a density of 1000 cells per well. After cell addition, 23 nL of test compound were transferred into individual wells (22 doses tested for each test compound, with a 1:2 dilution series starting at 10 μM) via a 1536 pin-tool. Bortezomib (final concentration 2.3 μM) was used as a positive control for cell cytotoxicity. Plates were incubated for 48 hours at standard incubator conditions covered by a stainless steel gasketed lid to prevent evaporation. 48 hours post compound addition, 3 μL of Cell Titer Glo (Promega) were added to each well and plates were incubated at room temperature for 15 minutes with the stainless-steel lid in place. Luminescence readings were taken using a Viewlux imager (PerkinElmer) with a 2 second exposure time per plate.
This cell line has activated FLT3 receptors, which carries an additional resistance mutation in the kinase domain at D835Y.
as §6, with “D835Y” for “D835Y and MOLM14 F691L”, “mL” for “μL”, “mM)” for “μM)”
(In ATP-based viability assays light output follows the ATP content of the culture.)

Each structure is given as a SMILES string. Some results are limits rather than exact numbers.

IRAK1, sequence (P51617 whole entry, the tested form may be a part): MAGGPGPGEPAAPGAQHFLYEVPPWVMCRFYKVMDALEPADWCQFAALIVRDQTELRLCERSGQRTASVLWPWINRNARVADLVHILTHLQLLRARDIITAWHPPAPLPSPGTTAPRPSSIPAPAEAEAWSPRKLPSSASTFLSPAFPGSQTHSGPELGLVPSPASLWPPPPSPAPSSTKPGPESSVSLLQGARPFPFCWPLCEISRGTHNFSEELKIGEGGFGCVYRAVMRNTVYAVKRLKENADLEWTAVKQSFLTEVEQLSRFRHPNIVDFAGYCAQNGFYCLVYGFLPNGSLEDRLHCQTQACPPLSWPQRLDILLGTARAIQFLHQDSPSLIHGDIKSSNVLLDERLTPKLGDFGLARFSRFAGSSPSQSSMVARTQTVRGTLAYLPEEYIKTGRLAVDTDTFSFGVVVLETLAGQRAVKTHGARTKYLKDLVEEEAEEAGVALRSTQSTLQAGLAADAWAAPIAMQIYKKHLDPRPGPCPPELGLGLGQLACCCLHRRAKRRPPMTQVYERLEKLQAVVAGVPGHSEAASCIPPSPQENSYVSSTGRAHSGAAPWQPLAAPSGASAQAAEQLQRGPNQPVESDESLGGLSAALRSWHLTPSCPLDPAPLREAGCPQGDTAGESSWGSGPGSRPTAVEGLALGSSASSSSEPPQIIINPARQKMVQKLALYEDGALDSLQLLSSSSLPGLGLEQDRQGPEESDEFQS

On to `COc1cn2ncc(-c3ccnc(N[C@H]4CNC[C@@H]4F)n3)c2nc1C(C)(C)O` [Compound 1a, 2-(3-(2-(((3S,4S)-4-fluoropyrrolidin-3-yl)amino)pyrimidin-4-yl)-6-methoxypyrazolo[1,5-a]pyrimidin-5-yl)propan-2-ol], for which the IC50 – broadly, the midpoint of a concentration-inhibition curve – at IRAK1 (Table 17) is 162 nM; against IRAK4 (Table 17) it was 9 nM; at FLT3 (Table 17), 2 nM; with MOLM14 D835Y cells (MOLM-14, Table 22, 48 h) it was 257 nM.

Turning to `COc1cn2ncc(-c3ccc(F)c(N[C@H]4CNC[C@@H]4F)n3)c2nc1C1CC1` [Compound 4, 6-(5-cyclopropyl-6-methoxypyrazolo[1,5-a]pyrimidin-3-yl)-3-fluoro-N-((3S,4S)-4-fluoropyrrolidin-3-yl)pyridin-2-amine], the IC50 is 4 nM at IRAK1 (Table 11); 0.9 nM against IRAK4 (Table 11); less than 0.5 nM at FLT3 (Table 11); 36 nM in the assay with MOLM14 D835Y cells (MOLM-14, Table 16, 48 h).

Consider `COc1cn2ncc(-c3nc(N[C@@H]4CCCNC4)c(C#N)cc3F)c2nc1C1CC1` [Compound 8, (R)-6-(5-cyclopropyl-6-methoxypyrazolo[1,5-a]pyrimidin-3-yl)-5-fluoro-2-(piperidin-3-ylamino)nicotinonitrile], for which the IC50 on IRAK1 (Table 11), on IRAK4 (Table 11) and at FLT3 (Table 11) was less than 0.5 nM throughout.

Take `COc1cn2ncc(-c3nc(N[C@H]4CNC[C@@H]4F)ccc3F)c2nc1C1CC1` [Compound 1, 6-(5-cyclopropyl-6-methoxypyrazolo[1,5-a]pyrimidin-3-yl)-5-fluoro-N-((3S,4S)-4-fluoropyrrolidin-3-yl)pyridin-2-amine]: the IC50 against IRAK1 (Table 11) is 0.9 nM; at IRAK4 (Table 11) it was less than 0.5 nM; against FLT3 (Table 11) it was less than 0.5 nM; in the assay with MOLM14 D835Y cells (MOLM-14, Table 16, 48 h) it was 9 nM.

For `COc1cn2ncc(-c3cncc(N[C@H]4CNC[C@@H]4F)n3)c2nc1C1CC1` [Compound 10a, 6-(5-cyclopropyl-6-methoxypyrazolo[1,5-a]pyrimidin-3-yl)-N-((3S,4S)-4-fluoropyrrolidin-3-yl)pyrazin-2-amine], the IC50 on IRAK1 (Table 17) is 6 nM; at IRAK4 (Table 17), 0.7 nM; on FLT3 (Table 17), less than 0.5 nM; in the assay with MOLM14 D835Y cells (MOLM-14, Table 22, 48 h) it was 81 nM.

For `COc1cnc2c(-c3cccc(N[C@H]4CNC[C@@H]4F)n3)cnn2c1` [Compound 18, N-((3S,4S)-4-fluoropyrrolidin-3-yl)-6-(6-methoxypyrazolo[1,5-a]pyrimidin-3-yl)pyridin-2-amine], the IC50 turned out to be 2320 nM on IRAK1 (Table 11), 72 nM against IRAK4 (Table 11) and 18 nM against FLT3 (Table 11).

On to `F[C@H]1CNC[C@@H]1Nc1cccc(-c2cnn3cc(Cl)cnc23)n1` [Compound 14, 6-(6-chloropyrazolo[1,5-a]pyrimidin-3-yl)-N-((3S,4S)-4-fluoropyrrolidin-3-yl)pyridin-2-amine], for which the results for the IC50 against IRAK1 (Table 11), against IRAK4 (Table 11) and at FLT3 (Table 11) were 6220 nM, 491 nM and 32 nM, respectively.

Regarding `CC(C)Oc1cnc2c(-c3cccc(N[C@H]4CNC[C@@H]4F)n3)cnn2c1` [Compound 17, N-((3S,4S)-4-fluoropyrrolidin-3-yl)-6-(6-isopropoxypyrazolo[1,5-a]pyrimidin-3-yl)pyridin-2-amine], the IC50 is 3510 nM against IRAK1 (Table 11), 295 nM against IRAK4 (Table 11) and 19 nM against FLT3 (Table 11).

Consider `F[C@H]1CNC[C@@H]1Nc1cccc(-c2cnn3cc(C4CC4)cnc23)n1` [Compound 15, 6-(6-cyclopropylpyrazolo[1,5-a]pyrimidin-3-yl)-N-((3S,4S)-4-fluoropyrrolidin-3-yl)pyridin-2-amine], for which the IC50 against IRAK1 (Table 11) stood at 1290 nM; against IRAK4 (Table 11) it was 267 nM; on FLT3 (Table 11) it was 15 nM.

Consider `FC(F)COc1cnc2c(-c3cccc(N[C@H]4CNC[C@@H]4F)n3)cnn2c1` [Compound 16, 6-(6-(2,2-difluoroethoxy)pyrazolo[1,5-a]pyrimidin-3-yl)-N-((3S,4S)-4-fluoropyrrolidin-3-yl)pyridin-2-amine], for which the IC50 worked out at 4300 nM against IRAK1 (Table 11), 61 nM against IRAK4 (Table 11) and 4 nM at FLT3 (Table 11).

For the origin of these results see patent US20260374773A1, “MULTI-CYCLIC IRAK AND FLT3 INHIBITING COMPOUNDS AND USES THEREOF” (CHILDREN'S HOSPITAL MEDICAL CENTER, priority 2022, published 2026).
